Some results are limits rather than exact numbers.

A word on the IC50: it is the concentration needed to halve the response being measured. In general, viability, T/C refers to the result in the treated group divided by that in the control group, in per cent.

The subject of this experiment is 475296-252-R-J1-PDC spheroid viability. Put plainly: Anticancer human tumor 475296-252-R-J1-PDC patient-derived rectal carcinoma cell line growth inhibition [PI3K]. The conditions noted are these: spheroids with HUVEC and MSC; for viability, T/C: stronger effect = lower value. The method in brief: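 Targeted small molecules plus PI3K inhibitors, half-log dose series from Cmax (default top 10 microM), were applied to heterotypic spheroids of cancer cells with HUVEC and MSCs. Viability indicated growth inhibition.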

Setting [1] is: curve of first compound, second compound 0.0316 µM.
Where [2] appears, read: curve of first compound, second compound 0.1 µM.
Setting [3] is: curve of first compound, second compound 0.316 µM.
Setting [4] is: curve of first compound, second compound 1 µM.
The mark [5] stands for this setting: second compound 0.0316 µM, first compound 0.0316 µM.
Setting [6] is: second compound 0.0316 µM, first compound 0.1 µM.
Setting [7] is: second compound 0.1 µM, first compound 0.0316 µM.
Where [8] appears, read: second compound 0.1 µM, first compound 0.1 µM.
Where [9] appears, read: second compound 0.316 µM, first compound 0.0316 µM.
The mark [10] stands for this setting: second compound 0.316 µM, first compound 0.1 µM.
The mark [11] stands for this setting: second compound 1 µM, first compound 0.0316 µM.
The mark [12] stands for this setting: second compound 1 µM, first compound 0.1 µM.
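Note: spheroids exposed to agents for seven days before readout.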

Regarding `CC(=O)c1c(C)c2cnc(Nc3ccc(N4CCNCC4)cn3)nc2n(C2CCCC2)c1=O` + COc1c(OCCCN2CCOCC2)ccc2c3n(c(=NC(=O)c4cnc(N)nc4)nc12)CCN3, the IC50 runs as follows: (curve of first compound, second compound 0.00316 µM) more than 0.1 µM; (curve of first compound, second compound 0.01 µM) more than 0.1 µM; under setting [1], more than 0.1 µM; under setting [2], more than 0.1 µM; under setting [3], more than 0.1 µM; under setting [4], more than 0.1 µM. For the same molecule, the viability, T/C is 108% (second compound 0.00316 µM, first compound 0.000316 µM); 101% (second compound 0.00316 µM, first compound 0.001 µM); 104% (second compound 0.00316 µM, first compound 0.00316 µM); 119% (second compound 0.00316 µM, first compound 0.01 µM); 113% (second compound 0.00316 µM, first compound 0.0316 µM); 108% (second compound 0.00316 µM, first compound 0.1 µM). Moreover, the viability, T/C was 97.4% (second compound 0.01 µM, first compound 0.000316 µM); 99.5% (second compound 0.01 µM, first compound 0.001 µM); 95.9% (second compound 0.01 µM, first compound 0.00316 µM); 99.5% (second compound 0.01 µM, first compound 0.01 µM); 98.5% (second compound 0.01 µM, first compound 0.0316 µM); 99.8% (second compound 0.01 µM, first compound 0.1 µM). The viability, T/C is 96.2% (second compound 0.0316 µM, first compound 0.000316 µM); 86% (second compound 0.0316 µM, first compound 0.001 µM); 90.5% (second compound 0.0316 µM, first compound 0.00316 µM); 98.7% (second compound 0.0316 µM, first compound 0.01 µM); 105% under setting [5]; 99.8% under setting [6]. The viability, T/C runs as follows: (second compound 0.1 µM, first compound 0.000316 µM) 77.8%; (second compound 0.1 µM, first compound 0.001 µM) 82.3%; (second compound 0.1 µM, first compound 0.00316 µM) 97.6%; (second compound 0.1 µM, first compound 0.01 µM) 77.8%; under setting [7], 83.9%; under setting [8], 84.1%. The viability, T/C is 71.6% (second compound 0.316 µM, first compound 0.000316 µM); 75.5% (second compound 0.316 µM, first compound 0.001 µM); 70.7% (second compound 0.316 µM, first compound 0.00316 µM); 72.6% (second compound 0.316 µM, first compound 0.01 µM); 82.8% under setting [9]; 84.6% under setting [10]. Besides, the viability, T/C (second compound 1 µM, first compound 0.000316 µM) was 60.7%; the viability, T/C (second compound 1 µM, first compound 0.001 µM) was 56.7%; the viability, T/C (second compound 1 µM, first compound 0.00316 µM) was 69.3%; the viability, T/C (second compound 1 µM, first compound 0.01 µM) was 61.5%; the viability, T/C under setting [11] was 59.7%; the viability, T/C under setting [12] is 52.4%.
Regarding `C=CC(=O)N1CCN(c2nc(=O)n(-c3c(C)ccnc3C(C)C)c3nc(-c4c(O)cccc4F)c(F)cc23)C(C)C1` (stereo not given), the viability, T/C (compound 0.1 µM) was 98.7% [middle of 4 runs]; the viability, T/C (compound 0.316 µM) is 97% [middle of 4 runs]; the viability, T/C (compound 1 µM) was 105% [middle of 4 runs]; the viability, T/C (compound 3.16 µM) was 110% [middle of 4 runs]; the viability, T/C (compound 10 µM) is 110% [middle of 4 runs]. For the setting “curve of compound”, the half-maximal inhibitory concentration (IC50) is more than 10 µM.
Regarding `CC(Cn1ccc(-c2ccc(C#N)c(Cl)c2)n1)NC(=O)c1cc(C(C)O)[nH]n1` (stereo not given) + CC(Nc1ncnc2nc[nH]c12)c1cc2cccc(Cl)c2c(=O)n1-c1ccccc1, the IC50 runs as follows: under setting [1], more than 10 µM; under setting [2], more than 10 µM; under setting [3], more than 10 µM; under setting [4], more than 10 µM; (curve of first compound, second compound 3.16 µM) more than 10 µM; (curve of first compound, second compound 10 µM) more than 10 µM. The viability, T/C was 97.8% under setting [5]; 94.9% under setting [6]; 96.6% (second compound 0.0316 µM, first compound 0.316 µM); 92.1% (second compound 0.0316 µM, first compound 1 µM); 102% (second compound 0.0316 µM, first compound 3.16 µM); 104% (second compound 0.0316 µM, first compound 10 µM). Besides, the viability, T/C was 99.1% under setting [7]; 98.5% under setting [8]; 91.7% (second compound 0.1 µM, first compound 0.316 µM); 89% (second compound 0.1 µM, first compound 1 µM); 101% (second compound 0.1 µM, first compound 3.16 µM); 84.1% (second compound 0.1 µM, first compound 10 µM). The viability, T/C under setting [9] was 97%; the viability, T/C under setting [10] is 97.8%; the viability, T/C (second compound 0.316 µM, first compound 0.316 µM) was 94.1%; the viability, T/C (second compound 0.316 µM, first compound 1 µM) is 99.5%; the viability, T/C (second compound 0.316 µM, first compound 3.16 µM) was 104%; the viability, T/C (second compound 0.316 µM, first compound 10 µM) was 89.7%. Moreover, the viability, T/C was 94.4% under setting [11]; 94.4% under setting [12]; 89.5% (second compound 1 µM, first compound 0.316 µM); 98.7% (second compound 1 µM, first compound 1 µM); 113% (second compound 1 µM, first compound 3.16 µM); 90.2% (second compound 1 µM, first compound 10 µM). The viability, T/C is, setting by setting: (second compound 3.16 µM, first compound 0.0316 µM) 95.1%; (second compound 3.16 µM, first compound 0.1 µM) 95.8%; (second compound 3.16 µM, first compound 0.316 µM) 83.4%; (second compound 3.16 µM, first compound 1 µM) 92.2%; (second compound 3.16 µM, first compound 3.16 µM) 94.5%; (second compound 3.16 µM, first compound 10 µM) 96.2%. The viability, T/C by setting is: (second compound 10 µM, first compound 0.0316 µM) 95%; (second compound 10 µM, first compound 0.1 µM) 99.2%; (second compound 10 µM, first compound 0.316 µM) 104%; (second compound 10 µM, first compound 1 µM) 92.3%; (second compound 10 µM, first compound 3.16 µM) 95.1%; (second compound 10 µM, first compound 10 µM) 91.8%.
As for `CC(C)n1nc(-c2ccc3oc(N)nc3c2)c2c(N)ncnc21`, the viability, T/C runs as follows: (compound 0.000316 µM) 99.6% [middle of 4 runs]; (compound 0.001 µM) 94.3% [middle of 4 runs]; (compound 0.00316 µM) 93.9% [middle of 4 runs]; (compound 0.1 µM) 63.1% [middle of 4 runs]. Further, the half-maximal inhibitory concentration (IC50) (curve of compound) was more than 0.1 µM.
